Columns and labels:
[1] = biological target: T1, GPR6 (Homo sapiens, UniProt P46095); assay: GPR6 antagonist functional cAMP assay (LANCE Ultra cAMP TR-FRET, CHO cells stably expressing GPR6); format: cell-based
T1 construct: expressed in transfected cells; host or cells: CHO cells
Outline: (§1)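 Suspended cells were plated at 10,000 per well in Krebs-Ringer bicarbonate buffer containing 0.1% BSA and 150 μM Ro 20-1724, then treated with compounds for 45 min at 37 °C. Intracellular cAMP was then quantified by TR-FRET immunoassay.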

[2] = biological target: T2, GPR3 (Homo sapiens, UniProt P46089); assay: GPR3 antagonist functional cAMP assay (LANCE Ultra cAMP TR-FRET, CHO cells stably expressing GPR3); format: cell-based
T2 construct: expressed in transfected cells; host or cells: CHO cells
Outline: as §1

[3] = procedure as described in Example 24
[4] = CHO cells stably expressing GPR6, cAMP assay (Example 24)
[5] = CHO cells stably expressing GPR3, cAMP assay (Example 24)

T2 sequence (P46089 whole entry, species assumed): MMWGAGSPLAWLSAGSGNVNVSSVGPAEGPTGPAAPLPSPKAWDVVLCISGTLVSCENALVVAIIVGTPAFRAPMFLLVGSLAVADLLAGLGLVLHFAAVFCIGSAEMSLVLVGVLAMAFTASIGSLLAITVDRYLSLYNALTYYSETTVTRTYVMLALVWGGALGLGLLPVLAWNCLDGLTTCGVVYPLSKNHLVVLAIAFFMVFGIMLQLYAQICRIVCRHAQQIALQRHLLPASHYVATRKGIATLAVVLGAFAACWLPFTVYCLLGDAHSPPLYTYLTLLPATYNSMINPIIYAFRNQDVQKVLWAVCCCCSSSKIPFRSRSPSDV
T1 sequence (P46095 whole entry): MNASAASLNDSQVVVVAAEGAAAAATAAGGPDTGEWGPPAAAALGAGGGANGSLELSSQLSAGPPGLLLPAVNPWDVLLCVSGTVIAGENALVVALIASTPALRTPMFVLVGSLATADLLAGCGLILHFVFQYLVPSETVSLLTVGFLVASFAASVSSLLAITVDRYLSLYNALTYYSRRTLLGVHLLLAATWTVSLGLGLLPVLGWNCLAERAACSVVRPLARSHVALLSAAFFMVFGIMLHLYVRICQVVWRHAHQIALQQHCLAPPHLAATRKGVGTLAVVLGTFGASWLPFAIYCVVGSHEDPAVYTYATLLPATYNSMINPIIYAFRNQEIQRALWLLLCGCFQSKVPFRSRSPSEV

| IC50 [1, 4] | IC50 [2, 5] | IC50 ([1]; procedure of Example 24) | IC50 ([2]; procedure of Example 24) | Structure (SMILES) | other results |
| --- | --- | --- | --- | --- | --- |
| – | – | < 100 nM | 1000 to 30000 nM | Cn1cc(-c2nc3cnc([C@H](O)C(C)(C)O)cc3nc2N2CCC(=Cc3ccc(F)cc3F)CC2)cn1 (single isomer, unassigned) [Compound 720] | – |
| – | – | 100 to 1000 nM | 1000 to 30000 nM | CC(C)(O)[C@@](C)(O)c1cc2nc(N3CCN(Cc4ccccc4F)CC3)c(-c3cnn(CF)c3)nc2cn1 (single isomer, unassigned) [Compound 676] | – |
| – | – | 100 to 1000 nM | 1000 to 30000 nM | CC(C)(O)[C@](C)(O)c1cc2nc(-c3cnn(C4CC4)c3)c(N3CCN(Cc4ccccc4F)CC3)nc2cn1 (single isomer, unassigned) [Compound 775] | – |
| – | – | 1000 to 30000 nM | ≥ 30000 nM | CC(=O)N1CCc2nc(N3CCN(C(c4ccc(F)cc4F)C(F)(F)F)CC3)c(-c3cnn(C)c3)nc2C1 (stereo not shown) [Compound 731, 1-(2-{4-[1-(2,4-difluorophenyl)-2,2,2-trifluoroethyl]-1-piperazinyl}-3-(1-methyl-4-pyrazolyl)-5,6,7,8-tetrahydro-1,4,6-triaza-6-naphthyl)-1-ethanone] | – |
| – | – | 100 to 1000 nM | 1000 to 30000 nM | CCn1cc(-c2nc3cnc(C(=O)C(C)(C)O)cc3nc2N2CCC(Oc3ccc(F)cc3F)CC2)cn1 [Compound 651, 1-{2-[4-(2,4-difluorophenoxy)-1-piperidyl]-3-(1-ethyl-4-pyrazolyl)-1,4,6-triaza-7-naphthyl}-2-hydroxy-2-methyl-1-propanone] | – |
| – | – | 1000 to 30000 nM | 1000 to 30000 nM | CC(=O)N1CCc2nc(N3CC[C@H](Oc4ccc(F)cc4F)[C@@H](F)C3)c(-c3cnn(C)c3)nc2C1 (single isomer, unassigned) [Compound 331] | – |
| 100 to 1000 nM | ≥ 30000 nM | – | – | O=C(CO)N1CCc2nc(N3CCC(Oc4ccc(F)cc4F)CC3)c(-c3cnn(C4CCCCO4)c3)nc2C1 (stereo not shown) [Compound 204, 1-{2-[4-(2,4-difluorophenoxy)piperidin-1-yl]-3-[1-(oxan-2-yl)-1H-pyrazol-4-yl]-5H,6H,7H,8H-pyrido [3,4-b]pyrazin-6-yl}-2-hydroxyethan-1-one] | – |

Second part, the molecule before the results:

| Structure (SMILES) | IC50 [1, 4] | IC50 [2, 5] | IC50 ([1]; procedure of Example 24) | IC50 ([2]; procedure of Example 24) | other results |
| --- | --- | --- | --- | --- | --- |
| Fc1ccc(OC2CCN(c3nc4ccncc4nc3-c3ncc[nH]3)CC2)c(F)c1 [Compound 41, 4-(2,4-difluorophenoxy)-1-[3-(1H-imidazol-2-yl)pyrido[3,4-b]pyrazin-2-yl]piperidine] | – | – | – | – | IC50 [1, 3]: 1000 to 30000 nM; IC50 [2, 3]: 1000 to 30000 nM |
| Cc1nccc2nc(N3CCC(Oc4ccc(F)cc4F)CC3)c(-c3cnn(C)c3)nc12 [Compound 487, 4-(2,4-difluorophenoxy)-1-[5-methyl-3-(1-methyl-1H-pyrazol-4-yl)pyrido[3,4-b]pyrazin-2-yl]piperidine] | < 100 nM | 1000 to 30000 nM | – | – | – |
| Cn1cc(-c2nc3c(nc2N2CCC(Oc4ccc(F)cc4F)CC2)CC2COC(=O)N2C3)cn1 (stereo not shown) [Compound 486, 2-(4-(2,4-difluorophenoxy)piperidin-1-yl)-3-(1-methyl-1H-pyrazol-4-yl)-9a,10-dihydro-5H-oxazolo[3′,4′:1,6]pyrido[3,4-b]pyrazin-7(9H)-one] | 100 to 1000 nM | 1000 to 30000 nM | – | – | – |
| CC(C)(O)[C@@](C)(O)c1cc2nc(N3CCN(Cc4ccc(F)cc4F)CC3)c(-c3cnn(C(F)F)c3)nc2cn1 (single isomer, unassigned) [Compound 695] | – | – | 100 to 1000 nM | 1000 to 30000 nM | – |
| CC(=O)Nc1cc2nc(N3CCC(Oc4ccc(F)cc4F)CC3)c(-c3cnn(C)c3)nc2cn1 [Compound 296, N-{2-[4-(2,4-difluorophenoxy)piperidin-1-yl]-3-(1-methyl-1H-pyrazol-4-yl)pyrido[3,4-b]pyrazin-7-yl}acetamide] | – | – | 1000 to 30000 nM | 1000 to 30000 nM | – |
| CC(C)(O)Cc1cc2nc(N3CCC(Oc4ccc(F)cc4F)CC3)c(-c3cnn(CF)c3)nc2cn1 [Compound 710, 1-{2-[4-(2,4-difluorophenoxy)-1-piperidyl]-3-[1-(fluoromethyl)-4-pyrazolyl]-1,4,6-triaza-7-naphthyl}-2-methyl-2-propanol] | – | – | 100 to 1000 nM | 1000 to 30000 nM | – |
| CC(=O)N1CCc2nc(N3CCC(Oc4ccc(F)cc4F)CC3)c(-c3cncc(OC(F)F)n3)nc2C1 [Compound 239, 1-{3-[6-(difluoromethoxy)pyrazin-2-yl]-2-[4-(2,4-difluorophenoxy)piperidin-1-yl]-5H,6H,7H,8H-pyrido[3,4-b]pyrazin-6-yl}ethan-1-one] | 1000 to 30000 nM | 1000 to 30000 nM | – | – | – |
| CC(=O)N1CCc2nc(N3CCC(Oc4c(F)ccc(F)c4F)CC3)c(-c3cnn(C)c3)nc2C1 [Compound 455, 1-[3-(1-methyl-1H-pyrazol-4-yl)-2-[4-(2,3,6-trifluorophenoxy)piperidin-1-yl]-5H,6H,7H,8H-pyrido[3,4-b]pyrazin-6-yl]ethan-1-one] | 1000 to 30000 nM | 1000 to 30000 nM | – | – | – |
| CCn1cc(-c2nc3cc(C(O)C(C)(C)O)ncc3nc2N2CCC(Oc3ccc(F)cc3F)CC2)cn1 (single isomer, unassigned) [Compound 589] | – | – | – | – | IC50 ([1]; CHO cells stably expressing GPR6, cAMP assay): < 100 nM; IC50 ([2]; CHO cells stably expressing GPR3, cAMP assay): 100 to 1000 nM |
| N#Cc1cc2nc(-c3cnn(CF)c3)c(N3CCN(Cc4ccc(F)cc4F)CC3)nc2cn1 [Compound 793, 3-{4-[(2,4-difluorophenyl)methyl]-1-piperazinyl}-2-[1-(fluoromethyl)-4-pyrazolyl]-1,4,6-triaza-7-naphthonitrile] | – | – | 1000 to 30000 nM | 1000 to 30000 nM | – |
| CC(=O)N1CCc2nc(N3CCC(Oc4ccc(F)cc4F)CC3)c(-c3ccnc(N)n3)nc2C1 [Compound 475, 1-[3-(2-aminopyrimidin-4-yl)-2-[4-(2,4-difluorophenoxy)piperidin-1-yl]-5H,6H,7H,8H-pyrido[3,4-b]pyrazin-6-yl]ethan-1-one] | < 100 nM | 1000 to 30000 nM | – | – | – |
| CC(=O)N1CCc2nc(N3CCC(Oc4ccc(F)cc4F)CC3)c(-c3ncco3)nc2C1 [Compound 18, 1-{2-[4-(2,4-difluorophenoxy)piperidin-1-yl]-3-(1,3-oxazol-2-yl)-5H,6H,7H,8H-pyrido[3,4-b]pyrazin-6-yl}ethan-1-one] | – | – | – | – | IC50 [1, 3]: 1000 to 30000 nM; IC50 [2, 3]: 100 to 1000 nM |
| Fc1ccc(OC2CCN(c3nc4ccncc4nc3-c3cn[nH]c3)CC2)c(F)c1 [Compound 9, 4-(2,4-difluorophenoxy)-1-[3-(1H-pyrazol-4-yl)pyrido[3,4-b]pyrazin-2-yl]piperidine] | – | – | – | – | IC50 [1, 3]: 100 to 1000 nM; IC50 [2, 3]: 100 to 1000 nM |
| Cn1cc(-c2nc3cc(Cl)ncc3nc2N2CCN(Cc3ccc(F)cc3F)CC2)cn1 [Compound 227, 1-[7-chloro-2-(1-methyl-1H-pyrazol-4-yl)pyrido[3,4-b]pyrazin-3-yl]-4-[(2,4-difluorophenyl)methyl] piperazine] | 100 to 1000 nM | 1000 to 30000 nM | – | – | – |
| CC(=O)N1CCc2nc(N3CCC(Oc4ccc(F)cc4F)CC3)c(-c3cnn4c3COCC4)nc2C1 [Compound 245, 1-{2-[4-(2,4-difluorophenoxy)piperidin-1-yl]-3-{4H,6H,7H-pyrazolo [3,2-c][1,4]oxazin-3-yl}-5H,6H,7H,8H-pyrido[3,4-b]pyrazin-6-yl}ethan-1-one] | 100 to 1000 nM | 1000 to 30000 nM | – | – | – |
| CC(=O)N1CCc2nc(N3CCN(Cc4cc(Cl)ccc4Cl)CC3)c(-c3cnn(C)c3)nc2C1 [Compound 281, 1-(2-{4-[(2,5-dichlorophenyl)methyl]piperazin-1-yl}-3-(1-methyl-1H-pyrazol-4-yl)-5H,6H,7H,8H-pyrido[3,4-b]pyrazin-6-yl)ethan-1-one] | – | – | < 100 nM | 1000 to 30000 nM | – |
